The values below are quoted from earlier work in patent publication US20050277132A1, “Nematode GS-like sequences” (Divergence Inc., a Delaware corporation, priority 2001, published 2005).

Data set [1] has as its system bacterial glutamine synthetase enzymes. The conditions noted are these: in vitro and in cell culture.
The subject of data set [2] is pathogenic bacteria that are known to secrete glutamine synthetase. To be noted: bacteria that secrete glutamine synthetase into the extracellular milieu.
The test system of data set [3] is nonpathogenic bacteria that do not export glutamine synthetase.
Data set [4] relates to isolated intestinal epithelial cells.
In data set [5] the test system is everted hamster jejunal and ileal segments.

Molecules are shown by their SMILES.

On to `CS(=N)(=O)CC[C@H](N)C(=O)O` (stereo partly drawn) [L-methionine-S-sulfoximine], for which the “times more active against certain bacterial glutamine synthetase enzymes than representative mammalian glutamine synthetases” value in data set [1] is given as 100 times. The “growth of pathogenic bacteria” value in data set [2] is given as “selectively block growth”. Also, in data set [3], the “effect against nonpathogenic bacteria” value is reported as “no effect”.

Turning to `CCCCCC[C@@H](O)C/C=C\CCCCCCCC(=O)O` [Ricinoleic acid], the cytotoxicity result in data set [4] is given as “cytotoxic”. The “effect on water and electrolyte absorption” value in data set [5] is reported as “inhibitory effect”.

As to `CCCCCC[C@@H](O)C/C=C\CCCCCCCC(=O)OC` [methyl ester of ricinoleic acid], the “effect on water and electrolyte absorption” value in data set [5] is “ineffective”.
